According to ChEMBL document CHEMBL4477261, “Design, synthesis and evaluation of the multidrug resistance-reversing activity of pyridine acid esters of podophyllotoxin in human leukemia cells” (Bioorg Med Chem Lett, 2016):

Assays:
[1] = system: K562/Adr; assay: Antiproliferative activity against human K562/ADR cells after 72 hrs by CCK8 assay; type: functional, cell-based
[2] = system: K562; assay: Antiproliferative activity against human K562 cells after 72 hrs by CCK8 assay; type: functional, cell-based; settings: K562, 72 h
[3] = system: K562; assay: Resistance factor, ratio of IC50 for human K562/ADR cells to IC50 for human K562 cells; type: functional

| Structure (SMILES) | IC50 [1] [nM] | IC50 [2] [nM] | Ratio IC50 [3] |
| --- | --- | --- | --- |
| COc1cc([C@@H]2c3cc4c(cc3[C@H](OC(=O)c3ccnc(Br)c3)[C@H]3COC(=O)[C@H]23)OCO4)cc(OC)c1OC | 58 | 23 | 2.521 |
| COc1cc([C@@H]2c3cc4c(cc3[C@H](OC(=O)c3cccnc3)[C@H]3COC(=O)[C@H]23)OCO4)cc(OC)c1OC [4-O-PODOPHYLLOTOXINYL-NICOTINATE] | 137 | 33 | 4.151 |
| COc1cc([C@@H]2c3cc4c(cc3[C@H](OC(=O)c3ccnc(Cl)c3)[C@H]3COC(=O)[C@H]23)OCO4)cc(OC)c1OC | 57 | 20 | 2.85 |
| COc1cc([C@@H]2c3cc4c(cc3[C@H](OC(=O)c3cc(Cl)ccn3)[C@H]3COC(=O)[C@H]23)OCO4)cc(OC)c1OC | 52 | 16 | 3.25 |
| COc1cc([C@@H]2c3cc4c(cc3[C@H](OC(=O)c3ccc(Br)cn3)[C@H]3COC(=O)[C@H]23)OCO4)cc(OC)c1OC | 160 | 19 | 8.421 |
| COc1cc([C@@H]2c3cc4c(cc3[C@H](OC(=O)c3ccc(Br)nc3)[C@H]3COC(=O)[C@H]23)OCO4)cc(OC)c1OC | 345 | 256 | 1.347 |
